Source: ChEMBL document CHEMBL4130497, “Fragment-based approach to identify IDO1 inhibitor building blocks” (Eur J Med Chem, 2017)

How the values were obtained:
[1] = target: Indoleamine 2,3-dioxygenase 1 (Homo sapiens, UniProt P14902); test: Binding affinity to NT647 dye labeled recombinant human IDO1 (1 to 403 residues) by microscale thermophoresis method
[2] = Dissociation constant, pKa of the compound; assay type: physicochemical
[3] = target: Indoleamine 2,3-dioxygenase 1 (Mus musculus) (UniProt P28776); test: Inhibition of mouse IDO1 expressed in mouse P1.HTR cells assessed as reduction in kynurenine production from L-Trp incubated for 16 hrs by HPLC method; assay type: cell-based
Indoleamine 2,3-dioxygenase 1 (Mus musculus), sequence (P28776 whole entry, looked up): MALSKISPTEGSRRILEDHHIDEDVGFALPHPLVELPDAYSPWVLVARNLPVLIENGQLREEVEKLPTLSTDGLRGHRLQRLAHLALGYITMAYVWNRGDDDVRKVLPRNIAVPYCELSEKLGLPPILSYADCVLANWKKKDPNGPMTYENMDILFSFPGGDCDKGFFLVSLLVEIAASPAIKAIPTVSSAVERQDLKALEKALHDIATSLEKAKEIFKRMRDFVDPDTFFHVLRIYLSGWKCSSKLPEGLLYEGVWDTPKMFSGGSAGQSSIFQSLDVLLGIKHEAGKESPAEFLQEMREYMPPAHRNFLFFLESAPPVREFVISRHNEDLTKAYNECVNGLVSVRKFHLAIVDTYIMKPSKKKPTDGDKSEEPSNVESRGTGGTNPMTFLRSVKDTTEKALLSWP

[4] = Lipophilicity, log P of the compound in n1-octanol and water by pH-metric assay; assay type: physicochemical; details: n-octanol/water

Indoleamine 2,3-dioxygenase 1, sequence (P14902 whole entry, the tested form may be a part): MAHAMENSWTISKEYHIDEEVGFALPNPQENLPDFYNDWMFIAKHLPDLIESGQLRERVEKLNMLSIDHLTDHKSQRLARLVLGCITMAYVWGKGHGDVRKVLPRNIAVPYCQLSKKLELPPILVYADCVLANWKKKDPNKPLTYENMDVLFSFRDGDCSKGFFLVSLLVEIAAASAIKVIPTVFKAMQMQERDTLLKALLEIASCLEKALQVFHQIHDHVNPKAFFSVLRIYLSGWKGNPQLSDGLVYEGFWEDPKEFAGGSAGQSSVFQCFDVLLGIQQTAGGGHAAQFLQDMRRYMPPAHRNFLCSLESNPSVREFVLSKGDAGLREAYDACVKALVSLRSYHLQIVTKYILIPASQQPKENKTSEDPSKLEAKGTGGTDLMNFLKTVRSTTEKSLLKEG

Row | SMILES | Kd [1] | further results
1 | Cc1ccc(NCCNC(=O)c2cccc(Cl)c2)nn1 | > 1000 µM | –
2 | NC(S)=NNC(=O)Nc1ccc(Cl)c(Cl)c1 | 941 µM | –
3 | CCc1cccc2sc(NCCN3CCOCC3)nc12 | 33.5 µM | pKa [2]: 3.1 to 6.2; logP [4]: 2.3
4 | COc1ccc(-c2cnc(CN)[nH]2)cc1 | > 500 µM | –
5 | NCC(O)c1cc(Cl)cc(Cl)c1 (stereo not given) | > 1000 µM | –
6 | COc1ccccc1OCC(O)CNC1CCCC1 (stereo not given) | > 1000 µM | –
7 | Cn1cc(C(O)CN)c2ccccc21 (stereo not given) | 97 µM | –
8 | Cc1c(C)n(CC(O)CN2CCNCC2)c2ccccc12 (stereo not given) | 96.7 µM | –
9 | NCCc1nc2ccc(F)cc2[nH]1 | 548 µM | –
10 | O=C(/C=C/N1CCOCC1)c1coc2ccccc12 | 147 µM | –
11 | OC(CC1c2ccccc2-c2cncn21)C1CCCCC1 (stereo not given) | – | pKa [2]: 6.7

Continued, in another order:

Row | Kd [1] | SMILES | further results
12 | > 1000 µM | Cc1ccc(NCCNC(=O)c2c[nH]c3ccccc23)nn1 | –
13 | > 1000 µM | NC(=O)CN1CCN(c2cccc3ccccc23)C(=O)C1=O | –
14 | 774 µM | OC(c1nc2ccccc2[nH]1)C(O)c1nc2ccccc2[nH]1 (stereo not given) | –
15 | 169 µM | COC(=O)C(N)c1ccc2ccccc2c1 (stereo not given) | –
16 | 17.8 µM | N=C(N)Sc1c[nH]c2ccccc12 | pKa [2]: 9.5; fold change (FC) [3]: < 0.6; logP [4]: 1.8
17 | 53.7 µM | O=S(=O)(NCc1cccnc1)c1ccc2ccccc2c1 | pKa [2]: 4.8 to 10.3; logP [4]: 2.5
18 | 240 µM | O=C(NCCn1ncccc1=O)c1ccc2ccccc2c1 | –
19 | 237 µM | O=C1CC(NC(=O)Cn2ccc3ccccc32)CN1 (stereo not given) | –
20 | > 1000 µM | NCC(O)COCC1COc2ccccc2O1 (stereo not given) | –
21 | 86.8 µM | COc1ccccc1OCC(O)Cn1cnc2ccccc21 (stereo not given) | –
22 | > 1000 µM | NCC(O)c1cccc2ccccc12 (stereo not given) | –
23 | 61.5 µM | NC(=O)c1csc(NC(=O)Cc2c[nH]c3ccccc23)c1 | –
